# Measured values: ChEMBL document CHEMBL1134169, “Serotonergic and dopaminergic activities of rigidified (R)-aporphine derivatives” (Bioorg Med Chem Lett, 2001)
# pKi: −log10 of the molar value.
# Experiments:
# [1] = target: T1, 5-hydroxytryptamine receptor 1A (Homo sapiens, UniProt P08908); assay: In vitro binding affinity towards cloned human 5-hydroxytryptamine 1A receptor expressed in Chinese hamster ovary (CHO) cells using [3H]8-OH-DPAT as radioligand; type: cell-based
# T1 sequence (P08908 whole entry): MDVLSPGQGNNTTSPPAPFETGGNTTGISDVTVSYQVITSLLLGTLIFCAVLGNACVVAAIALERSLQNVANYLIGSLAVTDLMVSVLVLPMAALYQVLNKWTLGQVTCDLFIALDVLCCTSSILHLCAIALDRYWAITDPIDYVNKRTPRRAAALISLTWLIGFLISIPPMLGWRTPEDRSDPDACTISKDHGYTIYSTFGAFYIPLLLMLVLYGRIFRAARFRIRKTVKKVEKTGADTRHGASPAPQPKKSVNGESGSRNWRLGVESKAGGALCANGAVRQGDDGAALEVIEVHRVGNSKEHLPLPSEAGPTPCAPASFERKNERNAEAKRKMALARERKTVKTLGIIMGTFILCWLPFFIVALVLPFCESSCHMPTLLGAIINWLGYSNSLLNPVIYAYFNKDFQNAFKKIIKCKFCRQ
# [2] = target: 5-hydroxytryptamine receptor 7 (Rattus norvegicus, UniProt P32305); assay: In vitro binding affinity towards cloned rat 5-hydroxytryptamine 7 receptor using [3H]5-HT as radioligand
# 5-hydroxytryptamine receptor 7, sequence (P32305 whole entry): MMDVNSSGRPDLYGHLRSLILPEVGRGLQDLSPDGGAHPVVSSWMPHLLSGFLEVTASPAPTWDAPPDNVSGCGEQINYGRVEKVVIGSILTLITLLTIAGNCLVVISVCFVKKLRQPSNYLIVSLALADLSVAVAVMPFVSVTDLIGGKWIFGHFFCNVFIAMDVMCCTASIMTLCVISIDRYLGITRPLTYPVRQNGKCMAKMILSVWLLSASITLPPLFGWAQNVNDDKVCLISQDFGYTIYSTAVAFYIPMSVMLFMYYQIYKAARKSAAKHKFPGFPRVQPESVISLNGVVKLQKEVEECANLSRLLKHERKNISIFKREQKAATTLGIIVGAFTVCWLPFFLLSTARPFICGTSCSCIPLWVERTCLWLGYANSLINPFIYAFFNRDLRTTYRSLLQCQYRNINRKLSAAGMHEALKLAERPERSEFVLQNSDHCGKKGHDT
# [3] = target: D(2) dopamine receptor (Homo sapiens, UniProt P14416); assay: In vitro binding affinity towards cloned human Dopamine receptor D2A using [3H]- Raclopride as radioligand.
# D(2) dopamine receptor, sequence (P14416 whole entry): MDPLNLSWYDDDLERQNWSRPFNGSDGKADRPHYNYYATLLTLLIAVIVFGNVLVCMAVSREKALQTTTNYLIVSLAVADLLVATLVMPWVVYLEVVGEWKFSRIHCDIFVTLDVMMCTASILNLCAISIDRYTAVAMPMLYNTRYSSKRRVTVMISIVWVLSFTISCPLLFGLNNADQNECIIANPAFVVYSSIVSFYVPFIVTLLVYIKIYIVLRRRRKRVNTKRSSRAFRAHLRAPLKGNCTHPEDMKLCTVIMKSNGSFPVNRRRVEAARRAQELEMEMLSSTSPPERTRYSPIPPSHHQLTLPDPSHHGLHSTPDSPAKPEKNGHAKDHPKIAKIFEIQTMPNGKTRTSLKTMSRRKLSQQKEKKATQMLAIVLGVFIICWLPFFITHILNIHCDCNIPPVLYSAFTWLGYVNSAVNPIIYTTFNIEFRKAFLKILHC
# [4] = target: T2, 5-hydroxytryptamine receptor 1A (Rattus norvegicus, UniProt P19327); assay: In vitro binding affinity towards 5-hydroxytryptamine 1A receptor using [3H]8-OH-DPAT as radioligand in rat hippocampus membrane.; type: cell membranes
# T2 sequence (P19327 whole entry): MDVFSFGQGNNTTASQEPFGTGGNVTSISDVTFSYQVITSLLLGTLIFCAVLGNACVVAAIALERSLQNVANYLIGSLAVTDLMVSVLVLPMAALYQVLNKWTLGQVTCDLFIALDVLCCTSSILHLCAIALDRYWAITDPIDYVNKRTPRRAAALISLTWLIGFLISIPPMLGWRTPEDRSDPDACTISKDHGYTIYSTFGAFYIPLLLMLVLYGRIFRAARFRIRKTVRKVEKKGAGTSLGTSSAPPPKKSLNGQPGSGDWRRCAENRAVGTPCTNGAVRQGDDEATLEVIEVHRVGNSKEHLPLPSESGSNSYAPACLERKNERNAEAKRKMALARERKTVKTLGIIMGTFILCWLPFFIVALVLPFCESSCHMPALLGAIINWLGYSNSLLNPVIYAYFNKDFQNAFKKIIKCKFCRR
pKi [4],Structure (SMILES),pKi [1],pKi [2],pKi [3]
–,CN1CCc2ccc3c(=O)[nH]c4cccc5c4c3c2[C@H]1C5,6.75,7.26,7.26
–,CN1CCc2ccc3cnc4cccc5c4c3c2[C@H]1C5,7.21,7.57,5.88
5.69,CN1CCc2ccc3oc(=O)c4cccc5c4c3c2[C@H]1C5,–,5.83,6.58
5.94,CN1CCc2ccc3c(=O)oc4cccc5c4c3c2[C@H]1C5,–,6.55,6.27
–,CN1CCc2ccc3[nH]c(=O)c4cccc5c4c3c2[C@H]1C5,6.43,6.47,5.21
–,CN1CCc2ccc3ncc4cccc5c4c3c2[C@H]1C5,7.47,7.09,6.49
